Target: T1, HLA-DR1 (Homo sapiens, UniProt P01903+P01911, A100R/D57E/F55L/F60I/F76Y/I96L/L162R/M171V/P40L/Q125E/R42F/V115G/Y59C)
T1 construct: made in house; host or cells: Sf9 insect cells
Experiment: Competition of synthetic peptides against 125I-labeled HA 307-319 for binding to "empty" HLA-DR1

Row | Molecule | Ki | relative binding affinity to DR1 (in words) (competitor peptides vs HA 307-319, "empty" DR1, at first approximation)
1 | CSCC[C@H](NC(=O)[C@H](CCCNC(=N)N)NC(=O)[C@H](CCSC)NC(=O)[C@H](CCCCN)NC(=O)[C@H](CO)NC(=O)[C@@H](NC(=O)[C@@H]1CCCN1C(=O)[C@H](CCCCN)NC(=O)[C@@H]1CCCN1C(=O)[C@@H]1CCCN1C(=O)[C@H](CCCCN)NC(=O)[C@@H]1CCCN1C(=O)[C@@H](N)CC(C)C)C(C)C)C(=O)N[C@@H](C)C(=O)N[C@H](C(=O)O)[C@@H](C)O [Ii 97-111] | > 10 µM | 
2 | Ii 107-120: invariant chain peptide named in the text as highest-affinity competitor; probably the Ii 106-120 entry of Table 2 (MRMATPLLMQALPM) |  | highest affinity of all the competitor peptides measured

— patent US5880103A, “Immunomodulatory peptides” (President and Fellows of Harvard College, priority 1995, dated 1999)
